Data taken from patent US20070128217A1 (priority 2003, published 2007).

Tests used:
[1] = tested on: rabbit serum obtained by immunizing a rabbit with the SARS-CoV strain Frankfurt 1; format: binding; set-up: Binding of a rabbit serum to linear peptides / Binding of a rabbit serum to looped peptides / Rabbit serum linear peptides / Rabbit serum looped peptides / Binding of a rabbit serum to linear peptides of protein N of SARS-CoV Urbani (Rabbit serum linear peptides) / Binding of a rabbit serum to looped/cyclic peptides of protein N of SARS-CoV Urbani (Rabbit serum looped peptides): unit not given here
[2] = tested on: control sera (pooled serum of ten healthy LUMC hospital workers; commercial negative donor pooled serum from the Dutch bloodbank); format: binding, human; set-up: Binding of Control serum LUMC to linear peptides / Binding of Control serum Blood-bank to linear peptides / Binding of Control serum LUMC to looped peptides / Binding of Control Serum Blood-Bank to Looped peptides / Binding of Control serum LUMC to linear peptides of the protein M of SARS-CoV Urbani / Binding of Control serum Blood-bank to linear peptides of the protein M of SARS-CoV Urbani / Binding of Control serum LUMC to looped peptides of the protein M of SARS-CoV Urbani / Binding of Control Serum Blood-Bank to Looped peptides of the protein M of SARS-CoV Urbani: unit not given here
[3] = tested on: antibodies in sera from SARS patients (sera 1a, 1b, 2, 6, 37, 62, London, SARS-yellow, SARS-green); format: binding, human; set-up: Binding of serum 6 to linear peptides of protein X1 of SARS-CoV Urbani / Binding of serum 37 to linear peptides of protein X1 of SARS-CoV Urbani / Binding of serum 6 to looped/cyclic peptide (PEPSCAN-ELISA) / Binding of serum 37 to looped/cyclic peptide (PEPSCAN-ELISA) / Binding of serum 37 to looped/cyclic peptides of protein X1 of SARS-CoV Urbani / Binding of serum 6 to linear peptides of protein X2 / Binding of serum 37 to linear peptides of protein X2 / Binding of serum 37 to looped/cyclic peptides of protein X2 of SARS-CoV Urbani / Binding of serum 6 to linear peptides of protein M of SARS-CoV Urbani / Binding of serum 37 to linear peptides of protein M of SARS-CoV Urbani / Binding of serum 6 to looped/cyclic peptides of protein M of SARS-CoV Urbani / Binding of serum 37 to looped/cyclic peptides of protein M of SARS-CoV Urbani / Binding of serum 6 to linear peptides of protein X3 of SARS-CoV Urbani / Binding of serum 37 to linear peptides of protein X3 of SARS-CoV Urbani / Binding of serum 37 to looped/cyclic peptides of protein X3 of SARS-CoV Urbani / Binding of serum 6 to linear peptides of protein X4 of SARS-CoV Urbani / Binding of serum 37 to linear peptides of protein X4 of SARS-CoV Urbani / Binding of serum 37 to looped/cyclic peptides of protein X4 of SARS-CoV Urbani / Binding of serum 6 to linear peptides of protein X5 of SARS-CoV Urbani / Binding of serum 37 to linear peptides of protein X5 of SARS-CoV Urbani / Binding of serum 37 to looped/cyclic peptides of protein X5 of SARS-CoV Urbani / Binding of serum 6 to linear peptides of protein N of SARS-CoV Urbani / Binding of serum 37 to linear peptides of protein N of SARS-CoV Urbani / Binding of serum 6 to linear peptide (PEPSCAN-ELISA) / Binding of serum 1a to looped/cyclic peptides of protein N of SARS-CoV Urbani / Binding of serum 1b to looped/cyclic peptides of protein N of SARS-CoV Urbani / Binding of serum 2 to looped/cyclic peptides of protein N of SARS-CoV Urbani / Binding of serum 6 to looped/cyclic peptides of protein N of SARS-CoV Urbani / Binding of serum 37 to looped/cyclic peptides of protein N of SARS-CoV Urbani / Binding of serum 62 to looped/cyclic peptides of protein N of SARS-CoV Urbani / Binding of serum London to looped/cyclic peptides of protein N of SARS-CoV Urbani / Binding of serum SARS-green to looped/cyclic peptides of protein N of SARS-CoV Urbani: unit not given here

Sequence	Rabbit serum linear peptides [1]	Rabbit serum looped peptides [1]	Binding of Control Serum Blood-Bank to Looped peptides [2]	Binding of Control serum Blood-bank to linear peptides [2]	Binding of Control serum LUMC to linear peptides [2]	Binding of Control serum LUMC to looped peptides [2]	Binding of Control Serum Blood-Bank to Looped peptides of the protein M of SARS-CoV Urbani [2]	Binding of Control serum Blood-bank to linear peptides of the protein M of SARS-CoV Urbani [2]	Binding of Control serum LUMC to linear peptides of the protein M of SARS-CoV Urbani [2]	Binding of Control serum LUMC to looped peptides of the protein M of SARS-CoV Urbani [2]	Binding of serum 1a to linear peptides of protein M of SARS-CoV Urbani [3]	Binding of serum 1a to looped/cyclic peptides of protein M of SARS-CoV Urbani [3]	Binding of serum 1b to linear peptides of protein M of SARS-CoV Urbani [3]	Binding of serum 1b to looped/cyclic peptides of protein M of SARS-CoV Urbani [3]	Binding of serum 2 to linear peptides of protein M of SARS-CoV Urbani [3]	Binding of serum 2 to looped/cyclic peptides of protein M of SARS-CoV Urbani [3]	Binding of serum 6 to linear peptides of protein M of SARS-CoV Urbani [3]	Binding of serum 6 to looped/cyclic peptides of protein M of SARS-CoV Urbani [3]	Binding of serum 37 to linear peptides of protein M of SARS-CoV Urbani [3]	Binding of serum 37 to looped/cyclic peptides of protein M of SARS-CoV Urbani [3]	other results
AALVFLILCFTIKRK	0.8	0.6	0.8	0.9	0.7	0.6															Binding of serum 1a to linear peptides of protein X4 of SARS-CoV Urbani [3]: 0.7; Binding of serum 1a to looped/cyclic peptides of protein X4 of SARS-CoV Urbani [3]: 0.8; Binding of serum 1b to linear peptides of protein X4 of SARS-CoV Urbani [3]: 0.8; Binding of serum 1b to looped/cyclic peptides of protein X4 of SARS-CoV Urbani [3]: 0.5; Binding of serum 2 to linear peptides of protein X4 of SARS-CoV Urbani [3]: 0.6; Binding of serum 2 to looped/cyclic peptides of protein X4 of SARS-CoV Urbani [3]: 0.7; Binding of serum 6 to linear peptides of protein X4 of SARS-CoV Urbani [3]: 0.8; Binding of serum 6 to looped/cyclic peptides of protein X4 of SARS-CoV Urbani [3]: 0.7; Binding of serum 37 to linear peptides of protein X4 of SARS-CoV Urbani [3]: 0.8; Binding of serum 37 to looped/cyclic peptides of protein X4 of SARS-CoV Urbani [3]: 0.6; Binding of serum 62 to linear peptides of protein X4 of SARS-CoV Urbani [3]: 0.8; Binding of serum 62 to looped/cyclic peptides of protein X4 of SARS-CoV Urbani [3]: 0.7; Binding of serum London to linear peptides of protein X4 of SARS-CoV Urbani [3]: 0.8; Binding of serum London to looped/cyclic peptides of protein X4 of SARS-CoV Urbani [3]: 0.5; Binding of serum SARS-green to linear peptides of protein X4 of SARS-CoV Urbani [3]: 0.7; Binding of serum SARS-green to looped/cyclic peptides of protein X4 of SARS-CoV Urbani [3]: 0.4; Binding of serum SARS-yellow to linear peptides of protein X4 of SARS-CoV Urbani [3]: 0.7; Binding of serum SARS-yellow to looped/cyclic peptides of protein X4 of SARS-CoV Urbani [3]: 0.5
AAVYRINWVTGGIAI	0.4	0.4					0.8	0.8	1.0	0.5	0.9	0.6	0.7	0.4	0.7	0.6	0.5	0.5	0.6	0.7	Binding of serum 62 to linear peptides of protein M of SARS-CoV Urbani [3]: 0.5; Binding of serum 62 to looped/cyclic peptides of protein M of SARS-CoV Urbani [3]: 0.4; Binding of serum London to linear peptides of protein M of SARS-CoV Urbani [3]: 0.4; Binding of serum London to looped/cyclic peptides of protein M of SARS-CoV Urbani [3]: 0.2; Binding of serum SARS-green to linear peptides of protein M of SARS-CoV Urbani [3]: 0.6; Binding of serum SARS-green to looped/cyclic peptides of protein M of SARS-CoV Urbani [3]: 0.0; Binding of serum SARS-yellow to linear peptides of protein M of SARS-CoV Urbani [3]: 0.3; Binding of serum SARS-yellow to looped/cyclic peptides of protein M of SARS-CoV Urbani [3]: 0.7
AAYNRYRIGNYKLNT	0.4	0.6					0.8	0.9	0.8	0.7	0.7	0.7	0.5	0.5	0.7	0.8	0.8	1.3	0.6	0.5	Binding of serum 62 to linear peptides of protein M of SARS-CoV Urbani [3]: 0.5; Binding of serum 62 to looped/cyclic peptides of protein M of SARS-CoV Urbani [3]: 0.7; Binding of serum London to linear peptides of protein M of SARS-CoV Urbani [3]: 0.4; Binding of serum London to looped/cyclic peptides of protein M of SARS-CoV Urbani [3]: 0.5; Binding of serum SARS-green to linear peptides of protein M of SARS-CoV Urbani [3]: 0.5; Binding of serum SARS-green to looped/cyclic peptides of protein M of SARS-CoV Urbani [3]: 0.3; Binding of serum SARS-yellow to linear peptides of protein M of SARS-CoV Urbani [3]: 0.2; Binding of serum SARS-yellow to looped/cyclic peptides of protein M of SARS-CoV Urbani [3]: 0.7
YSRVKNLNSSEGVPD			0.4	0.6	0.8	0.8															Binding of a rabbit serum to linear peptides [1]: 0.3; Binding of a rabbit serum to looped peptides [1]: 0.0
YVYSRVKNLNSSEGV			0.9	0.8	0.6	0.8															Binding of a rabbit serum to linear peptides [1]: 1.2; Binding of a rabbit serum to looped peptides [1]: 0.5
YYKLGASQRVGTDSG	0.1	0.0					0.7	1.0	0.8	0.7											
